Test results from PMC10818259, “Antioxidant and Inhibitory Activities of Filipendula glaberrima Leaf Constituents against HMG-CoA Reductase and Macrophage Foam Cell Formation” (Molecules, 2024).

Experiments:
[1] = test system: lipid peroxidation in liver homogenate; assay: Inhibitory effect on lipid peroxidation (LPO) in liver homogenate, TBARS; type: biochemical, Sprague Dawley rats; details: isolates and standards; rat liver homogenate; mean ± SD, n = 3; read-out: Antioxidant Activity (IC50) LPO
Source text: Assay for inhibitory effect of lipid peroxidation. Male Sprague Dawley rats were used in the […]
Technology (approval number: […]-2018-081). Experimental animals were […]
anesthetized with isoflurane and dissected. A 0.15 M ice-cold KCl solution was perfused through the liver portal vein to remove blood from the liver and extract the liver. The liver was homogenized in KCl solution at 10 times the liver’s weight , and the protein concentration was quantified by the Bradford protein method using bovine serum albumin as a standard. A lipid peroxidation test was performed using a slightly modified version of the method described.
Reaction mixtures consisted of 300 μL of liver ho mogenate (11 mg protein/mL) , 300 μL of 50 mM Tris -HCl buffer (pH 7.5) containing 10 μM FeSO 4, and 0.4 mM ascorbic acid. Test samples (10 μL) or DMSO blanks were added to the reaction mixture and incubated at 37 °C for 30 min. After incubation, lipid peroxidation was measured by forming thiobarbituric acid reactive substance s. The mixture was subjected to a reaction at 90 °C for 30 min, followed by cooling and subsequent centrifugation (5,000 × g) for 10 min. The absorbance of the resulting supernatant was d etermined at 535 nm, and the percentage of lipid peroxidation inhibition by the sample was computed. DMSO was utilized as a control instead of the test drug, and the […]

[2] = DPPH radical scavenging assay; details: read-out: Antioxidant Activity (IC50) DPPH, isolates and standards, mean ± SD, n = 3
Experimental: As positive controls, ascorbic acid, quercetin, resveratrol, and Trolox were employed. Triplicate measurements were performed for each sample, and the mean values were determined.
DPPH radical scavenging assay.
The extracts and isolates were dissolved in dimethyl sulfoxide (DMSO) at concentrations
ranging from 0.1 to 10 mg/mL and 0.1 to 10 mM, respectively. Subsequently, they were
combined with an ethanol solution of DPPH (100 μM). The DPPH solution (190 μL per well)
and the samples (10 μL per well) were incubated in a 96-well microplate at 37 °C for 30 minutes
under dark conditions. The absorbance at 515 nm was quantified using a microplate reader, and
the percentage inhibition (%) of each sample was calculated by comparing it with the control
group treated with DMSO. Linear regression analysis was employed to estimate the IC50 values,
which indicated the concentration of test samples required to inhibit 50% of the free radicals.

[3] = target: T1, HMG-CoA reductase (HMGR) (Homo sapiens, UniProt P04035); assay: HMG-CoA reductase (HMGR) inhibition assay, NADPH oxidation at 340 nm; type: biochemical
T1 sequence (P04035 426-888 limits assumed): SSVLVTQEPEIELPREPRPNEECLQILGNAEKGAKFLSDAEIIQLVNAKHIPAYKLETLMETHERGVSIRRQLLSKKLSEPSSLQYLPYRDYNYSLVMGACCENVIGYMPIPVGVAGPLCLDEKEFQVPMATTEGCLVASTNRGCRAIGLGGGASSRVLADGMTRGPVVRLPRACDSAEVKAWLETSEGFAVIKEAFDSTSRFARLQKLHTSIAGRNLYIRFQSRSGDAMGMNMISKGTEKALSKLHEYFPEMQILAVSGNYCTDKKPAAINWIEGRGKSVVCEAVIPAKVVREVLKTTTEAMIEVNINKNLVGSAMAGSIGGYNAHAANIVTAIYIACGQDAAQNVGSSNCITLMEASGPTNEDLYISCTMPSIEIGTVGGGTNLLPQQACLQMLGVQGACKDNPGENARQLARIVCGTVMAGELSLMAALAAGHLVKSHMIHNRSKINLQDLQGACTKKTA
Experimental: The HMGR activity assay was optimized using a 96-well microplate reader to measure nicotinamide adenine dinucleotide phosphate (NADPH) oxidation during enzyme turnover. Each well was loaded with a mixture comprising 89 μL of 50 mM sodium phosphate buffer (pH 6.8), 0.8 mM NADPH, and 2 μg of the enzyme (2–8 units/mg). To initiate the reaction, 1 μL of the test sample and 10 μL of 0.8 mM HMG-CoA were introduced to the well. […] The activity of HMGR was assessed by monitoring the reduction in NADPH absorbance at 340 nm for a duration of 900 s at 37 °C.

[4] = Superoxide anion radical scavenging assay (xanthine/xanthine oxidase, NBT); type: biochemical; details: isolates and standards; mean ± SD, n = 3; read-out: Antioxidant Activity (IC50) Superoxide Anion Radical
Source text: Superoxide anion radical scavenging assay.

[5] = test system: THP-1 macrophage foam cells; assay: ox-LDL-induced macrophage foam cell formation, Oil Red O staining; type: cell-based; details: Homo sapiens, 50 μg/mL ox-LDL, 16 h, positive control, read-out: Inhibitory effect on foam cell formation
Experimental: This approach aimed to examine the impact of these substances on lipid accumulation and the formation of foam cells. First, we observed the effects of different concentrations (20, 40, and 60 μg/mL) of the solvent extracts on the THP-1 macrophage activity. […] As a result, we selected and optimized the concentration of 50 μg/mL for the solvent extract to be used in the subsequent experiments. […] Following the extraction of the intracellular dye using isopropanol, a quantitative assessment of the intracellular lipid content was conducted.
THP-1 cells (ATCC, TIB-202, Manassas, VA, USA) were obtained and maintained in RPMI-1640 medium (Cytiva, UT, USA), supplemented with 10% fetal bovine serum (FBS; Hyclone, Cytiva, Logan, UT, USA), penicillin (100 U/mL), streptomycin (100 μg/mL), and 2-mercaptoethanol (Sigma-Aldrich, Saint Louis, MO, USA) at a final concentration of 0.05 mM. The cells were cultured at 37 °C in a 5% CO2 atmosphere with humidity. The THP-1 cells in the suspension were treated with 50 nM phorbol-12-myristate-13-acetate (Sigma-Aldrich, USA) for 48 h. […]
THP-1 cells were seeded in 24-well plates at a density of 5 × 10^5 cells/mL and pretreated as described above. […] The absorbance at 450 nm was measured using a multi-plate reader (Synergy Neo, BioTek Instruments, Inc., Winooski, VT, USA) and statistically processed.

Row | Structure (SMILES) | IC50 [1] [µM] | IC50 [2] [µM] | IC50 [3] [µM] | IC50 [4] [µM] | HMGR inhibition, result in words [3] | IC50 ([2]; listed as quercetin) [µM] | inhibition at 5 µM [5] [%]
1 | O=C(OC1C(O)OC2COC(=O)c3cc(Oc4c(C(=O)O)cc(O)c(O)c4O)c(O)c(O)c3-c3c(cc(O)c(O)c3O)C(=O)OC2C1OC(=O)c1cc(O)c(O)c(O)c1)c1cc(O)c(O)c(O)c1 (stereo not shown) [Compound 2, rugosin B] | 6.02 ± 0.14 | 3 ± 0.08 | 17.7 ± 0.04 | 5.53 ± 0.21 | – | – | –
2 | O=C(O[C@@H]1O[C@@H]2COC(=O)c3cc(Oc4c(C(=O)O)cc(O)c(O)c4O)c(O)c(O)c3-c3c(cc(O)c(O)c3O)C(=O)O[C@H]2[C@H](OC(=O)c2cc(O)c(O)c(O)c2)[C@H]1OC(=O)c1cc(O)c(O)c(O)c1)c1cc(O)c(O)c(O)c1 [Compound 4, rugosin A] | 3.75 ± 0.52 | 3.19 ± 0.13 | 12.2 ± 0.5 | 3.21 ± 0.05 | – | – | –
3 | O=C(O[C@@H]1O[C@@H]2COC(=O)c3cc(O)c(O)c(O)c3-c3c(cc(O)c(O)c3O)C(=O)O[C@H]2[C@H](OC(=O)c2cc(O)c(O)c(O)c2)[C@H]1OC(=O)c1cc(O)c(O)c(O)c1)c1cc(O)c(O)c(O)c1 [Compound 5, eugeniin] | 3.61 ± 0.34 | 4.34 ± 0.17 | 26.7 ± 0.9 | 4.75 ± 0.14 | – | – | –
4 | O=C(OC[C@H]1O[C@@H](OC(=O)c2cc(O)c(O)c(O)c2)[C@H](OC(=O)c2cc(O)c(O)c(O)c2)[C@@H](OC(=O)c2cc(O)c(O)c(O)c2)[C@@H]1OC(=O)c1cc(O)c(O)c(O)c1)c1cc(O)c(O)c(O)c1 [Compound 7, 1,2,3,4,6-penta-O-galloyl-β-D-glucose] | 3.87 ± 0.61 | 3.81 ± 0.19 | 4.98 ± 0.18 | 4.47 ± 0.07 | – | – | –
5 | O=C(OC[C@H]1O[C@@H](OC(=O)c2cc(O)c(O)c(O)c2)[C@H](OC(=O)c2cc(O)c(O)c(O)c2)[C@@H](OC(=O)c2cc(O)c(O)c(O)c2)[C@@H]1O)c1cc(O)c(O)c(O)c1 [Compound 9, 1,2,3,6-tetra-O-galloyl-β-D-glucose] | 5.88 ± 0.13 | 3.94 ± 0.25 | 41.5 ± 3.9 | 4.64 ± 0.45 | weak effect | – | –
6 | O=C(O)[C@H]1O[C@@H](Oc2c(O)cc(O)c3c(=O)c(O)c(-c4ccc(O)cc4)oc23)[C@H](O)[C@@H](O)[C@@H]1O [Compound 11, kaempferol 8-O-glucuronic acid] | > 50 | 23 ± 0.45 | > 50 | 17.7 ± 0.3 | – | – | –
7 | CC[C@H](C)C(=O)O[C@H]1C[C@H](O)C=C2C=C[C@H](C)[C@H](CC[C@@H](O)C[C@@H](O)CC(=O)O)[C@H]21 [Pravastatin] | – | – | – | – | – | – | 77
8 | O=c1c(O)c(-c2ccc(O)c(O)c2)oc2cc(O)cc(O)c12 [Quercetin, reference compound] | 7.45 ± 1.33 | 17.3 ± 1.09 | – | 21.3 ± 0.34 | – | 42.1 | –
9 | Oc1ccc(/C=C/c2cc(O)cc(O)c2)cc1 [Resveratrol, reference compound] | 47.6 ± 6.35 | 42.1 ± 1.91 | – | > 50 | – | – | –

More lines, in order of falling IC50 [2], values ahead:

Row | IC50 [1] [µM] | IC50 [2] [µM] | IC50 [3] [µM] | IC50 [4] [µM] | HMGR inhibition, result in words [3] | IC50 ([2]; listed as quercetin) [µM] | Structure (SMILES) | inhibition at 5 µM [5] [%]
10 | – | 31.7 ± 0.21 | – | > 50 | – | – | O=C1O[C@H]([C@@H](O)CO)C(O)=C1O [Vitamin C, ascorbic acid, reference compound] | –
11 | 33.2 ± 3.6 | 31.3 ± 1.27 | – | > 50 | – | – | Cc1c(C)c2c(c(C)c1O)CCC(C)(C(=O)O)O2 (stereo not shown) [Trolox, reference compound] | –
12 | 3.54 ± 0.15 | 20.9 ± 0.98 | 13.8 ± 1.53 | 3.6 ± 0.23 | – | – | O=C(OC[C@H]1OC(O)[C@H](OC(=O)c2cc(O)c(O)c(O)c2)[C@@H](OC(=O)c2cc(O)c(O)c(O)c2)[C@@H]1OC(=O)c1cc(O)c(O)c(O)c1)c1cc(O)c(O)c(O)c1 (stereo partly drawn) [Compound 8, 2,3,4,6-tetra-O-galloyl-D-glucose] | –
13 | 34.1 ± 2.98 | 15.7 ± 0.15 | > 50 | 21.5 ± 2.03 | – | – | O=C(O)[C@H]1O[C@@H](Oc2c(-c3ccc(O)c(O)c3)oc3cc(O)cc(O)c3c2=O)[C@H](O)[C@@H](O)[C@@H]1O [Compound 10, quercetin 3-glucuronic acid] | –
14 | 3.93 ± 0.53 | 4.7 ± 0.14 | > 50 | 4.1 ± 0.53 | – | – | O=C(OC1C(O)OC2COC(=O)c3cc(O)c(O)c(O)c3-c3c(cc(O)c(O)c3O)C(=O)OC2C1OC(=O)c1cc(O)c(O)c(O)c1)c1cc(O)c(O)c(O)c1 (stereo not shown) [Compound 6, tellimagrandin I] | –
15 | 3.83 ± 0.52 | 4.27 ± 0.45 | 8.4 ± 0.84 | 4.25 ± 0.11 | – | – | COC(=O)c1cc(O)c(O)c(O)c1Oc1cc2c(c(O)c1O)-c1c(cc(O)c(O)c1O)C(=O)O[C@H]1[C@H](OC(=O)c3cc(O)c(O)c(O)c3)[C@@H](OC(=O)c3cc(O)c(O)c(O)c3)[C@H](OC(=O)c3cc(O)c(O)c(O)c3)O[C@@H]1COC2=O [Compound 3, rugosin A methyl ester] | –
16 | 3.54 ± 0.29 | 3.62 ± 0.57 | 1.46 ± 0.22 | 4.29 ± 0.23 | – | – | COC(=O)c1cc(O)c(O)c(O)c1Oc1cc2c(c(O)c1O)-c1c(cc(O)c(O)c1O)C(=O)OC1C(COC2=O)OC(O)C(OC(=O)c2cc(O)c(O)c(O)c2)C1OC(=O)c1cc(O)c(O)c(O)c1 (stereo not shown) [Compound 1, Rugosin B methyl ester] | –
